Measured values as given in ChEMBL document CHEMBL1138295, “Multiple N-methylation by a designed approach enhances receptor selectivity” (J Med Chem, 2007).
Square brackets hold non-standard residues; d marks the D form. Peptide text beside a SMILES is read from it.

Key:
[1] = Permeability across human Caco-2 cell monolayer; assay type: ADME, cell-based
[2] = biological target: Integrin alpha-IIb/beta-3 (Homo sapiens, UniProt P05106+P08514); assay: Binding affinity to integrin alpha-2b-beta-3 receptor by solid phase binding assay; assay type: protein-complex assay
Integrin alpha-IIb/beta-3, sequence (P05106 27-788 limits assumed): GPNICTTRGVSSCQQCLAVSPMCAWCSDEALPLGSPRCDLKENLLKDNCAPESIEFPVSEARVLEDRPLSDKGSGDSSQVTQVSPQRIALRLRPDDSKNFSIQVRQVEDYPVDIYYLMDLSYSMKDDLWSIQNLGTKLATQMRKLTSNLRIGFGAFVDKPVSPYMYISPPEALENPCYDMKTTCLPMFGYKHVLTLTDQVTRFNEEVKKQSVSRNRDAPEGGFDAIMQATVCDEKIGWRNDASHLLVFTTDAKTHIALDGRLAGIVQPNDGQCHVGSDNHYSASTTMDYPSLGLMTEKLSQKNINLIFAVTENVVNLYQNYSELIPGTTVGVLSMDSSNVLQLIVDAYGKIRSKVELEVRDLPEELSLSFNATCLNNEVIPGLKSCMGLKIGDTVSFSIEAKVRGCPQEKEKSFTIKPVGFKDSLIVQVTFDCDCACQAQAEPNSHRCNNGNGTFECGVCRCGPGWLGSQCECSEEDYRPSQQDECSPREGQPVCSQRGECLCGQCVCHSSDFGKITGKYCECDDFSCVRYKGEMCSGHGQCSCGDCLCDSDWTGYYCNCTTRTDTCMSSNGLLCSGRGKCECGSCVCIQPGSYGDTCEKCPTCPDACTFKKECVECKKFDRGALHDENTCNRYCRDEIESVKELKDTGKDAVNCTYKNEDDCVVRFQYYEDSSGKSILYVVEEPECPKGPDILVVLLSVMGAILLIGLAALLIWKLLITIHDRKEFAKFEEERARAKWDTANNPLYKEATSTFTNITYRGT
Integrin alpha-IIb/beta-3, sequence (P08514 32-887 limits assumed): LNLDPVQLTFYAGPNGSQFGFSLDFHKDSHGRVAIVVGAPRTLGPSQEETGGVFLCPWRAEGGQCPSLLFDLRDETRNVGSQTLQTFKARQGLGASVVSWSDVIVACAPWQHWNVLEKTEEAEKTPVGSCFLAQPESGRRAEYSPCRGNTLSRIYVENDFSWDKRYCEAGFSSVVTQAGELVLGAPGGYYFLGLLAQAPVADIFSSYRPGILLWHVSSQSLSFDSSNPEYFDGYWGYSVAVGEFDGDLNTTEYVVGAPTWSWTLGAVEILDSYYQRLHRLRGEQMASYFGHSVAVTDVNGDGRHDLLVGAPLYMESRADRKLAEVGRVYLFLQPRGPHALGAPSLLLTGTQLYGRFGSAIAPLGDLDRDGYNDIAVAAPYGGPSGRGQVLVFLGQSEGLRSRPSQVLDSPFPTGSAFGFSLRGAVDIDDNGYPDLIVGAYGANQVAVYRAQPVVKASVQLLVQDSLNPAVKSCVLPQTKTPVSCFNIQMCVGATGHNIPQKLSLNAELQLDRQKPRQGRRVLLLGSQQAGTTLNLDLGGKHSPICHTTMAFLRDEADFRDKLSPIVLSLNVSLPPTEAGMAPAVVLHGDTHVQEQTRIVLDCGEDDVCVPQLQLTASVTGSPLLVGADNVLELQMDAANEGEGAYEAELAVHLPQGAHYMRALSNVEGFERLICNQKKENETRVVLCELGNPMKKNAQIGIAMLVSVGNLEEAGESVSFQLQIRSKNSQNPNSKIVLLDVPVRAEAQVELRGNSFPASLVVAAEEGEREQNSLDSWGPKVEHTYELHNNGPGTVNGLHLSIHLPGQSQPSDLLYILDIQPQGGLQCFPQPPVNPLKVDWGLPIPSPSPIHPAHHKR
Integrin alpha-IIb/beta-3, sequence (P08514 891-1039 limits assumed): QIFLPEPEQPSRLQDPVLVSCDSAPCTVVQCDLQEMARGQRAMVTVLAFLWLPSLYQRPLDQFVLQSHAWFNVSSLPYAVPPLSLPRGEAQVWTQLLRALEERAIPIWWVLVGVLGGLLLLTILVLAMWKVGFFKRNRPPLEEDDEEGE

Integrin alpha-V/beta-3 = Integrin alpha-V/beta-3 (Homo sapiens, UniProt P05106+P06756); assay: Binding affinity to integrin alpha-v-beta-3 receptor by solid phase binding assay; assay type: protein-complex assay
Integrin alpha-V/beta-3, sequence (P05106 27-788 limits assumed): as the sequence (P05106 27-788 limits assumed) above
Integrin alpha-V/beta-3, sequence (P06756 31-889 limits assumed): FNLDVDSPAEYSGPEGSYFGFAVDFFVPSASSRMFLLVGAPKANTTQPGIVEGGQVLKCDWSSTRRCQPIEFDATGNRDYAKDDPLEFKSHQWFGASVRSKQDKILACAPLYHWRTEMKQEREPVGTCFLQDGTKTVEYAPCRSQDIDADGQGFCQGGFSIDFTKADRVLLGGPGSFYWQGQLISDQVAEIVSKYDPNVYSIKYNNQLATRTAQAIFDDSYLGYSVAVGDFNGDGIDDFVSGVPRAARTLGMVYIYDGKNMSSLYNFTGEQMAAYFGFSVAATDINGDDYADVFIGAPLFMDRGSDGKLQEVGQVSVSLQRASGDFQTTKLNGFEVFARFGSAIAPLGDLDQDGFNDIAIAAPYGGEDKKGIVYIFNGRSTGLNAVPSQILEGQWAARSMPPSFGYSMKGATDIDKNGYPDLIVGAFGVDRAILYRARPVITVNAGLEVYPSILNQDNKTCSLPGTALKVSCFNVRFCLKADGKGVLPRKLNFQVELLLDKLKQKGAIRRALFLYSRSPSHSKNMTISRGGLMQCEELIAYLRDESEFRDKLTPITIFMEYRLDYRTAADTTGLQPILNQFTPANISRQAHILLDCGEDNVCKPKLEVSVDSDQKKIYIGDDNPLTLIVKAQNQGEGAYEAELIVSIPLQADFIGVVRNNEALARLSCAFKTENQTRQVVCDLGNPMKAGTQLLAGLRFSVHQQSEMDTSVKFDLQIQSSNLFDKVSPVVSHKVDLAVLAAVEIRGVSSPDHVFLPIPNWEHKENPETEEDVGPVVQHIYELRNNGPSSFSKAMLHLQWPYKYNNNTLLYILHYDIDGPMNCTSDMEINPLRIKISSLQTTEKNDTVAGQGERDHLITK
Integrin alpha-V/beta-3, sequence (P06756 891-1048 limits assumed): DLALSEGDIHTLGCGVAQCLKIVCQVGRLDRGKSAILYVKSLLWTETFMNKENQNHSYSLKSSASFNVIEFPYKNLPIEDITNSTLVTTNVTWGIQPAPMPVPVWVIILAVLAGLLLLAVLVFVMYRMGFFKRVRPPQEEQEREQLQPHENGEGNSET

Integrin alpha-5/beta-1 = Integrin alpha-5/beta-1 (Homo sapiens, UniProt P05556+P08648); assay: Binding affinity to integrin alpha-5-beta-1 receptor by solid phase binding assay; assay type: protein-complex assay
Integrin alpha-5/beta-1, sequence (P05556 21-798 limits assumed): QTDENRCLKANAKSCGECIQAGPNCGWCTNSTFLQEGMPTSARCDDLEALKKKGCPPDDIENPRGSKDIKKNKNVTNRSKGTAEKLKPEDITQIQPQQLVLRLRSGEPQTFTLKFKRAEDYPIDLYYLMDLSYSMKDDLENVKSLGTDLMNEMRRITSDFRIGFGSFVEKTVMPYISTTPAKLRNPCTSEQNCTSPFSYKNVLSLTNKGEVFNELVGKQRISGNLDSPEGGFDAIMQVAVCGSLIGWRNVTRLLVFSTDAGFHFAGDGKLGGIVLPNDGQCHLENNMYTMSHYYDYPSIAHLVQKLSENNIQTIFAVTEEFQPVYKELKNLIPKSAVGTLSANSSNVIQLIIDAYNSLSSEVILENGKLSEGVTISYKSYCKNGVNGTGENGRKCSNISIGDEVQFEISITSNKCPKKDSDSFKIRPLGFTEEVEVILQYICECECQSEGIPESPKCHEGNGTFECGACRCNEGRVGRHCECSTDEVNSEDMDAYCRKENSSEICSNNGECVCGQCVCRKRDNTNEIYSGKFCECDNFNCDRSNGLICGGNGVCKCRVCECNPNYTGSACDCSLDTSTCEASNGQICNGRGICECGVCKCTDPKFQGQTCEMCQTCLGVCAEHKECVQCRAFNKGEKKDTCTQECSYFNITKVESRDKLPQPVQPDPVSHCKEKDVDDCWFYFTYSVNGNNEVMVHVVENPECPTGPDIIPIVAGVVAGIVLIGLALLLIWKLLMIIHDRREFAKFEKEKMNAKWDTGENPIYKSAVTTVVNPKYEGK
Integrin alpha-5/beta-1, sequence (P08648 42-894 limits assumed): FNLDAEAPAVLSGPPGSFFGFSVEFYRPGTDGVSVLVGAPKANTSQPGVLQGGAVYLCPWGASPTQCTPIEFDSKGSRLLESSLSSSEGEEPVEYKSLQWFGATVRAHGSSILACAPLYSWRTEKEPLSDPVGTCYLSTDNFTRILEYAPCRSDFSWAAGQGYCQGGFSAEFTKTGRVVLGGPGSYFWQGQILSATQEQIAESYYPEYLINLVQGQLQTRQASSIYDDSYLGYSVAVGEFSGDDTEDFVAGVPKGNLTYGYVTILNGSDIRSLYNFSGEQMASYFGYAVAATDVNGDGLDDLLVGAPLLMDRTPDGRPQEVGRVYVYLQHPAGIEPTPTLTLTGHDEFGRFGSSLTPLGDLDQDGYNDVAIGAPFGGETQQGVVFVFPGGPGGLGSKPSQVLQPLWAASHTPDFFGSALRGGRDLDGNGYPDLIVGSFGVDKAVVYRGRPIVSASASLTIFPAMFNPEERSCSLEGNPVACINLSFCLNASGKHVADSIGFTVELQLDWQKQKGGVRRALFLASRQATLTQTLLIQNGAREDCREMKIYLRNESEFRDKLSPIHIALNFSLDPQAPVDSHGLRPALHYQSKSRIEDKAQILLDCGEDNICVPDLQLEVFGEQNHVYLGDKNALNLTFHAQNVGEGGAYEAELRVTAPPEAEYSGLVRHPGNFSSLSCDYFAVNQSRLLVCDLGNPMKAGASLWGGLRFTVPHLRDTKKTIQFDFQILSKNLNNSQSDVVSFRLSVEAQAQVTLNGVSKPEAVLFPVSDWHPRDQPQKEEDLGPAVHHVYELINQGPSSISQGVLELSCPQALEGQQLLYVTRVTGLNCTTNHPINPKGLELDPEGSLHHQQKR
Integrin alpha-5/beta-1, sequence (P08648 895-1049 limits assumed): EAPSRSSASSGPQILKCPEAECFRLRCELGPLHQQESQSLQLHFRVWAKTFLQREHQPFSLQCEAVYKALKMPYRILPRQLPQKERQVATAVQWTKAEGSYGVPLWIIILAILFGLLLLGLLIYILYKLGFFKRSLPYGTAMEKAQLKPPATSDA

Homo sapiens = species: Homo sapiens; assay: Selectivity for integrin alpha2bbeta3 receptor over integrin alphavbeta3 receptor

Compound `OC[C@@H](O)[C@@H](O)[C@H](O)[C@H](O)CO` [MANNITOL] has a Papp [1] of 0.9 ×10⁻⁶ cm/s.
For `CC(C)C[C@@H]1NC(=O)[C@@H](Cc2ccccc2)N(C)C(=O)[C@H](CC(=O)O)NC(=O)CNC(=O)[C@H](CCCN=C(N)N)NC(=O)CNC1=O`, the IC50 [2] was 2000 nM, the IC50 (Integrin alpha-V/beta-3) was 490 nM and the Papp [1] was 0.03 ×10⁻⁶ cm/s. For the same compound, the IC50 (Integrin alpha-5/beta-1) was 4300 nM.
For `CC(C)C[C@@H]1NC(=O)[C@@H](Cc2ccccc2)N(C)C(=O)[C@H](CC(=O)O)NC(=O)CNC(=O)[C@H](CCCNC(=N)N)NC(=O)CNC1=O`, the Ratio IC50 (Homo sapiens) was 0.2.
Compound `CC(C)C[C@@H]1NC(=O)[C@@H](Cc2ccccc2)N(C)C(=O)[C@H](CC(=O)O)NC(=O)CNC(=O)[C@H](CCCNC(=N)N)N(C)C(=O)CNC1=O` has an IC50 [2] of 165 nM, a Ratio IC50 (Homo sapiens) of 16 and an IC50 (Integrin alpha-V/beta-3) of 2730 nM. For the same compound, the Papp [1] was 0.03 ×10⁻⁶ cm/s and the IC50 (Integrin alpha-5/beta-1) was > 20000 nM.
In the case of `CC(C)C[C@H]1C(=O)NCC(=O)N[C@@H](CCCNC(=N)N)C(=O)NCC(=O)N[C@@H](CC(=O)O)C(=O)N[C@H](Cc2ccccc2)C(=O)N1C`, the Ratio IC50 (Homo sapiens) is reported as 0.2.
`CC(C)C[C@H]1C(=O)NCC(=O)N(C)[C@@H](CCCNC(=N)N)C(=O)NCC(=O)N[C@@H](CC(=O)O)C(=O)N(C)[C@H](Cc2ccccc2)C(=O)N1C` showed a Ratio IC50 (Homo sapiens) of 406.
Work on `CC(C)C[C@H]1C(=O)NCC(=O)N(C)[C@@H](CCCNC(=N)N)C(=O)NCC(=O)N[C@@H](CC(=O)O)C(=O)N[C@H](Cc2ccccc2)C(=O)N1C` yielded an IC50 [2] of 15 nM, a Ratio IC50 (Homo sapiens) of 86 and an IC50 (Integrin alpha-V/beta-3) of 1300 nM. For the same compound, the Papp [1] was 0.03 ×10⁻⁶ cm/s and the IC50 (Integrin alpha-5/beta-1) was 20000 nM.
In the case of `CC(C)C[C@H]1C(=O)NCC(=O)N[C@@H](CCCNC(=N)N)C(=O)NCC(=O)N[C@@H](CC(=O)O)C(=O)N(C)[C@H](Cc2ccccc2)C(=O)N1C`, the Ratio IC50 (Homo sapiens) is reported as 2.
`CC(C)C[C@@H]1NC(=O)[C@@H](Cc2ccccc2)NC(=O)[C@H](CC(=O)O)NC(=O)CNC(=O)[C@H](CCCNC(=N)N)NC(=O)CNC1=O` (cyclo(GRGD[dF]L)) gave an IC50 [2] of 195 nM, a Ratio IC50 (Homo sapiens) of 0.5 and an IC50 (Integrin alpha-V/beta-3) of 100 nM. The Papp [1] was 0.03 ×10⁻⁶ cm/s and the IC50 (Integrin alpha-5/beta-1) was 740 nM.
With `CC(C)C[C@H]1C(=O)NCC(=O)N[C@@H](CCCN=C(N)N)C(=O)NCC(=O)N[C@@H](CC(=O)O)C(=O)N[C@H](Cc2ccccc2)C(=O)N1C` the IC50 [2] was 560 nM, the IC50 (Integrin alpha-V/beta-3) was 103 nM and the Papp [1] was 0.03 ×10⁻⁶ cm/s. For the same compound, the IC50 (Integrin alpha-5/beta-1) was 3900 nM.
Compound `CC(C)C[C@@H]1NC(=O)[C@@H](Cc2ccccc2)NC(=O)[C@H](CC(=O)O)NC(=O)CNC(=O)[C@H](CCCNC(=N)N)N(C)C(=O)CNC1=O` has a Ratio IC50 (Homo sapiens) of 64.
`CC(C)C[C@H]1C(=O)NCC(=O)N[C@@H](CCCN=C(N)N)C(=O)NCC(=O)N[C@@H](CC(=O)O)C(=O)N(C)[C@H](Cc2ccccc2)C(=O)N1C` showed an IC50 [2] of 620 nM, an IC50 (Integrin alpha-V/beta-3) of 1200 nM and a Papp [1] of 0.03 ×10⁻⁶ cm/s. For the same compound, the IC50 (Integrin alpha-5/beta-1) was > 20000 nM.
In the case of `CC(C)C[C@@H]1NC(=O)[C@@H](Cc2ccccc2)NC(=O)[C@H](CC(=O)O)NC(=O)CNC(=O)[C@H](CCCN=C(N)N)N(C)C(=O)CNC1=O`, the IC50 [2] is reported as 12 nM, the IC50 (Integrin alpha-V/beta-3) is reported as 770 nM and the Papp [1] is reported as 0.03 ×10⁻⁶ cm/s. The IC50 (Integrin alpha-5/beta-1) was 1200 nM.
Work on `CC(C)C[C@H]1C(=O)NCC(=O)N(C)[C@@H](CCCN=C(N)N)C(=O)NCC(=O)N[C@@H](CC(=O)O)C(=O)N(C)[C@H](Cc2ccccc2)C(=O)N1C` yielded an IC50 [2] of 30 nM, an IC50 (Integrin alpha-V/beta-3) of 12200 nM and a Papp [1] of 0.03 ×10⁻⁶ cm/s. For the same compound, the IC50 (Integrin alpha-5/beta-1) was > 20000 nM.
